Experimental data taken from US3995033A, “Secondary phosphoric acid esters, composition and method of use” (priority 1971, dated 1976).
Counter-ions that a name gives are not always drawn.

Legend:
[1] = test system: PGE2-stimulated corticosterone production by adrenals; assay: Prostaglandin-stimulated corticosterone production by rat adrenals in vitro; format: cell-based, Sprague-Dawley male rats; settings: for Corticosterone production: mean ± standard error
Procedure: The inhibitory effect of esters of the present invention has been investigated on the prostaglandin-stimulated corticosterone production by adrenals from male rats in vitro. The experiments were performed using adult Sprague-Dawley male rats weighing 200-250 g, which were housed 1 per cage under conditions of controlled lighting and temperature. Animal quarters were not entered during the 18 hours preceding the experiment. The animals were sacrified by decapitation at 10 AM under conditions chosen to minimize disturbance of the animals. The adrenals were decapsulated and quartered and 8 adrenal quarters from different animals were distributed to 10 ml Erlenmeyer flasks containing 0.5 ml 0.9 % saline and 2.0 ml Krebs-Ringer bicarbonate buffer, pH 7.4. The weight of the adrenal tissue in each flask was determined. The flasks were gassed with 95 % O 2 -- 5 CO2 and preincubated at 37° C for 1 hour with continuous shaking. Following preincubation the media were decanted and discarded. One ml of Krebs-Ringer buffer, with or without the additions of prostaglandin E2 (PGE2) sodium 3,5-dimethylphenyl 4-(3-(2,4,6-trihydroxyphenyl)-3-oxopropyl)phenyl phosphate.
(for details see below) was added to the flasks, which were then gassed with 95 % 02 -- 5 % CO2 and kept at 37° C for 1 hour with continuous shaking. Following incubation, corticosterone levels were determined on 0.5 ml aliquots of the medium by the sulphuric acid fluorescence method.
In the first experiment (I) PGE2 in a concentration of 1 μg/ml was added to the incubation medium containing the quartered adrenals.
In the next experiment (II) different amounts of Leo 1258 to the incubation medium.

[2] = test system: ovarian lactic acid production produced by PGE1; assay: Prostaglandin-stimulated glycolysis of the prepubertal ovary in vitro; format: cell-based, prepubertal rats
Procedure: The action of esters of the present invention on the prostaglandin-stimulated glycolysis of the prepubertal ovary is investigated. The method used has been described in detail by Perklev & Ahren (Life Sciences Part I, 10:1387, 1971). In these experiments ovaries from prepubertal rats are removed and placed in Erlenmeyer flasks containing compounds of this invention dissolved in Krebs bicarbonate buffer. After that the ovaries have been preincubated during 60 min. at 37° C in this medium, they are blotted on filter paper and then washed for 2 min. in plain buffer. The ovaries are then transferred to a new incubation medium containing prostaglandins (PG) dissolved in Krebs bicarbonate buffer and incubated at 37° C for 2 hours with continuous shaking. The ovarian glycolysis is then determined by measuring the concentration of lactic acid in the incubation medium. When polyphloretin phosphate (PPP) is present in the preincubation medium in a concentration of 500 μg/ml, the subsequent ovarian lactic acid production produced by PGE1 is reduced to about 50 % of that obtained with ovaries preincubated in plain buffer.

[3] = test system: bronchial smooth muscle, isolated perfused guinea-pig lung; assay: Effect on bronchial smooth muscle, isolated perfused guinea-pig lung
Description: The effects of esters of the present invention on bronchial smooth muscle have been investigated using an isolated perfused guinea-pig lung preparation according to Thattacharya & Delaunois (Arch. Int. Pharmacodyn. 101:495, 1955). The lungs from guinea-pigs weighing 300-400 g are removed, and the trachea and A. pulmonalis cannulated. The arterial cannula is connected to a perfusion fluid reservoir containing Tyrode solution buffered with 10 % Sorensen phosphate buffer. The tracheal cannula is connected with tubing to a carbogen gas supply delivering a constant amount per time unit. The perfusion pressure is measured in a side arm of the tubing with a "Mercury" transducer connected to an Ultralette UV-recorder. The compounds are injected via the arterial cannula, close to the entrance of A. pulmonalis in the lung.

[4] = test system: PGE1-stimulated ovarian glycolysis; assay: In vivo action on prostaglandin-stimulated glycolysis of the prepubertal ovary (i.p. injection, ovaries then incubated with PGE1); design: species or system Prepubertal rats of the Sprague-Dawley strain; settings: injected i.p. (500 μg in 1 ml saline) one hour before removal of ovaries; PGE1 0.4 μg/ml, 2 hours
Procedure: Prepubertal rats, 24-26 days old, of the Sprague-Dawley strain, are injected intraperitoneally (i.p.) with 1 ml saline containing 500 μg sodium 3,5-dimethylphenyl 4-(3-(2,4,6-trihydroxyphenyl)-3-oxo-propyl)phenyl phosphate.
One hour later the animals are sacrified by cervical fracture and the ovaries are removed and trimmed free of extraneous tissue. The ovaries are then transferred to an incubation bath containing prostaglandin E1 (PGE1; 0.4 μg/ml) dissolved in Krebs bicarbonate buffer and incubated at 37° C for 2 hours with continuous shaking. The ovarian glyclysis is then determined by measuring the concentration of lactic acid in the incubation medium. The details of the method have been described previously (Perkley, T. & Ahren, K., Life Sciences Part I, 10:1387, 1971).

[5] = test system: anaphylactic bronchoconstriction elicited by antigen (egg albumin), isolated perfused guinea-pig lung; assay: Anaphylactic bronchoconstriction in the isolated perfused lung of sensitized guinea-pigs
Description: The effects of esters of the present invention on the anaphylactic reaction in guinea-pigs have been investigated using the isolated perfused guinea-pig lung preparation as described by Bhattacharya & Delaunois (Arch. Int. Pharmacodyn. 101:495, 1955). Guinea-pigs weighing about 300 g are sensitized with egg albumin according to Fredholm & Strandberg (1969). After the appropriate sensitization period the lungs are removed and mounted in a moist, thermostated chamber. The trachea and A. pulmonalis are cannulated. The arterial cannula is connected to a perfusion fluid reservoir containing Tyrode solution buffered with 10 % Sorensen phosphate buffer. The tracheal cannula is connected with tubing to a carbogen gas supply delivering a constant amount per time unit. The perfusion pressure is measured in a side arm of the tubing with a "Mercury" transducer connected to an Ultralette UV-recorder. When antigen (egg albumin), 0.1 - 1.0 μg, is injected via the arterial cannula, a broncho-constriction, indicated by an increase in the perfusion pressure, is elicited.

[6] = test system: gerbil colon (ascending colon) in vivo; assay: Smooth muscle stimulatory effect on the gerbil colon in vivo; design: species or system mongolian gerbils
Procedure: The experiments are performed with mongolian gerbils, anesthetized with pentobarbital, 50 mg/kg. The ascending colon is exposed and carefully stretched between silk thread loops and a strain-gauge transducer.
After a stable base-line has been established an eter of this invention, sodium 3,5-dimethylphenyl 4-(3-(2,4,6-trihydroxyphenyl)-3-oxopropyl)phenylphosphate (Leo 1258) is infused i.v.

[7] = test system: gerbil colon, contractions produced by prostaglandins E1, E2, F1α and F2α; assay: PG-inhibitory effect on the isolated gerbil colon; design: species or system Gerbils (Meriones unguiculatus)
Procedure: The PG-inhibitory effect of esters of the present invention on the gerbil colon are determined using the general technique described by Eakins, Miller & Karim (J. Pharm. Exp. Ther. 176:441, 1971). Gerbils (Meriones unguiculatus) of own breed, both sexes, weighing 50-80 g are used. The animal is stunned, colon ascendens immediately removed, and a 2-3 cm piece mounted in a 6 ml bath containing a modified de Jalon solution at 28° C and continuously oxygenated. Contractions of the organ are registered either isotonicaly or isometrically. When testing the inhibitory effect of a compound this is added to the bath 2 min. before the addition of prostaglandin. The antagonist (esters of this invention) is usually dissolved in saline, but occasionally an organic solvent such as ethanol has to be included. Several concentrations of each antagonist are used. In this system prostaglandins E1, E2, F1α and F2α produce suitable contractions of the organ in the concentration range 1-50 ng/ml.
Results from these experiments give an approximation of the PG-inhibitory potency of the compounds. When more precise information about this is desired we use a more elaborate method involving the establishment of several […] dose-response curves in the presence of various concentrations of inhibitor. The method used is essentially the same as that described by Arunlakshana & Schild (Br. J. Pharm. 14:48, 1959). […]

[8] = test system: Slow Reacting Substance (SRS) contractions of isolated guinea-pig ileum; assay: Antagonism to Slow Reacting Substance on the isolated guinea-pig ileum
Procedure: The antagonism to Slow Reacting Substance (SRS) is determined on the isolated guinea-pig ileum as described by Mathe & Standberg (Acta physiol. scand. 82:460, 1971). Purified SRS is obtained from cat paws perfused with compound 48/80 (Strandberg & Uvnas: Acta physiol. scand. 82.358, 1971). Sodium 4-(3-oxo-3-(2,4,6-trihydroxyphenyl)propyl)phenyl phenyl phosphate was tested in this system in several concentrations.

[9] = test system: contractions produced by histamine and bradykinin, isolated guinea-pig ileum; assay: Selectivity on the isolated guinea-pig ileum: histamine and bradykinin; settings: concentrations as low as 5 μg/ml

## CCCCC[C@H](O)/C=C/[C@H]1[C@H](O)CC(=O)[C@@H]1C/C=C\CCCC(=O)O [PGE2, prostaglandin E2, reference compound]
[1]; Exp. I, PGE2 1 μg/ml alone, 4 observ.
  Corticosterone production: 7.6±0.4 μg/100 mgx 1 h
[1]; Exp. II group B, PGE2 1 μg/ml alone
  Corticosterone production: 8.4±0.5 μg/100 mgx 1 h
[1]; PGE2 1 μg/ml, Exp. I
  effect on the corticosterone concentration: highly significant increase

## Cc1cc(C)cc(OP(=O)(O)Oc2ccc(CCC(=O)c3c(O)cc(O)cc3O)cc2)c1 [Leo 1258, sodium 3,5-dimethylphenyl 4-(3-(2,4,6-trihydroxyphenyl)-3-oxopropyl)phenylphosphate]
[2]
  activity as a prostaglandin inhibitor relative to PPP: 5-10 times
[2]; Rattus norvegicus, 60 min. preincubation, then 2 hours with PG, read-out: concentration in the preincubation medium giving about 50 % reduction of the lactic acid production produced by PGE1
  IC50: 50 to 100 µg/mL
[3]; injected via the arterial cannula
  dose showing a broncho-constricting effect: ≥ 0.5 mg
[1]; 0.25 and 1.0 mg added to the incubation bath
  effect on the PGE2-stimulated corticosterone production: dose-related inhibition
[1]; Exp. II group A, Leo 1258 250 μg/ml without PGE2
  Corticosterone production: 3.9±0.5 μg/100 mgx 1 h
[1]; Exp. II group C, PGE2 1 μg/ml + Leo 1258 250 μg/ml
  Corticosterone production: 6.5±0.5 μg/100 mgx 1 h
[1]; Exp. II group D, PGE2 1 μg/ml + Leo 1258 1 mg/ml
  Corticosterone production: 2.9±0.2 μg/100 mgx 1 h
[4]
  ovarian glycolysis (lactic acid) compared with saline-injected animals: significantly reduced
[5]; 4-20 μg/ml incorporated in the Tyrode solution
  effect on the anaphylactic bronchoconstriction: abolished or markedly reduced
[6]; 1 mg/ml in the buffer solution superfusing the gut
  reaction of the gut: increase in tone
[6]; Meriones unguiculatus, iv, infused i.v., anesthetized gerbils, read-out: dose that causes the gut to respond with a series of contractions
  minimal effective dose: ≥ 40 mg/kg
[7]; relative to PPP
  concentration for 50 per cent reduction of the PG-induced contraction, as fraction of that of PPP: about one tenth

## O=C(CCc1ccc(OP(=O)([O-])Oc2ccccc2)cc1)c1c(O)cc(O)cc1O.[Na+] [sodium 4-(3-oxo-3-(2,4,6-trihydroxyphenyl)propyl)-phenyl phenyl phosphate]
[8]; concentrations as low as
  concentration that inhibits contractions produced by SRS: 5 µg/mL
[8]; parallel shift of the dose-response curves, no change in maximum contraction
  manner of the inhibition of SRS contractions: competitive
[9]
  inhibition of contractions produced by histamine and bradykinin: not by histamine and bradykinin

## O=P(O)(Oc1ccccc1)Oc1ccccc1 [sodium salt of diphenyl phosphate, reference compound]
[3]; dose of 12.8 mg
  broncho-constricting effect: completely lacked such an effect
[8]
  antagonism to SRS: without effect
[5]; concentration 100 μg/ml
  effect on the anaphylactic bronchoconstriction: completely lacked such an effect
[6]; i.v., doses up to 400 mg/kg
  effect on the gut: no effect at all
[7]; concentrations 10 times as high as that of PPP
  PG-inhibitory effect on the gerbil colon: without effect
